# Legend:
# [1] = Cardiovascular function study in awake telemeterized animals; conditions: single doses through 30 mg/kg
# BTK [2] = target: T1, BTK (Mus musculus, UniProt P35991); assay: Molecular probe assay of irreversible BTK occupancy in MDSCs; type: in vivo, tumor bearing PDA mice; conditions: 15 mg/kg BID; Day 8 at 4 hours post dose (N=5)
# T1 construct: MDSCs were purified from tumor bearing PDA mice; endogenous in cells; host or cells: granulocytic and monocytic MDSCs purified from tumour-bearing PDA mice
# T1 sequence (P35991 whole entry): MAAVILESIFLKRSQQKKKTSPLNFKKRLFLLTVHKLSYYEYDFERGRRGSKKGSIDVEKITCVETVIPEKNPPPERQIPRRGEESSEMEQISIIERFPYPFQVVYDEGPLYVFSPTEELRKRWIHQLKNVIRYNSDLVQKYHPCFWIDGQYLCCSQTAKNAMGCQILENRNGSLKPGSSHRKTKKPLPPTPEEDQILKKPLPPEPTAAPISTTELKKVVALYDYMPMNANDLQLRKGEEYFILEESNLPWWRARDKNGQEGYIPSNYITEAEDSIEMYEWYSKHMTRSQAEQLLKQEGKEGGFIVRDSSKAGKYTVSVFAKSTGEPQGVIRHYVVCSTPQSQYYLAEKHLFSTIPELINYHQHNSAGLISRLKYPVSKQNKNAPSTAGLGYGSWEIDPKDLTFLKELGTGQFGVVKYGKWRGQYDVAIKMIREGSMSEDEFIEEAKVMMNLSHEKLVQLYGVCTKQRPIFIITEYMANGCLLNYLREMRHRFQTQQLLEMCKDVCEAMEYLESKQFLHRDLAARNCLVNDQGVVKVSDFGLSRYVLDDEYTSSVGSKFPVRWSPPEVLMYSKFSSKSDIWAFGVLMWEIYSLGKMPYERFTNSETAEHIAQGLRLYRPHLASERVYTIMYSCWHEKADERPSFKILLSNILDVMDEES
# Source text: A molecular probe assay was used to calculate the percent irreversible occupancy of total BTK.
# [3] = system: regulatory T cell (Treg) development; assay: Regulatory T cell (Treg) development; type: cell-based
# BTK [4] = target: BTK (Homo sapiens, UniProt Q06187); assay: BTK target occupancy in relapsed/refractory CLL patients; type: in vivo; conditions: at lower dosage versus ibrutinib
# Chain of BTK (Homo sapiens, UniProt Q06187) (Q06187 whole entry): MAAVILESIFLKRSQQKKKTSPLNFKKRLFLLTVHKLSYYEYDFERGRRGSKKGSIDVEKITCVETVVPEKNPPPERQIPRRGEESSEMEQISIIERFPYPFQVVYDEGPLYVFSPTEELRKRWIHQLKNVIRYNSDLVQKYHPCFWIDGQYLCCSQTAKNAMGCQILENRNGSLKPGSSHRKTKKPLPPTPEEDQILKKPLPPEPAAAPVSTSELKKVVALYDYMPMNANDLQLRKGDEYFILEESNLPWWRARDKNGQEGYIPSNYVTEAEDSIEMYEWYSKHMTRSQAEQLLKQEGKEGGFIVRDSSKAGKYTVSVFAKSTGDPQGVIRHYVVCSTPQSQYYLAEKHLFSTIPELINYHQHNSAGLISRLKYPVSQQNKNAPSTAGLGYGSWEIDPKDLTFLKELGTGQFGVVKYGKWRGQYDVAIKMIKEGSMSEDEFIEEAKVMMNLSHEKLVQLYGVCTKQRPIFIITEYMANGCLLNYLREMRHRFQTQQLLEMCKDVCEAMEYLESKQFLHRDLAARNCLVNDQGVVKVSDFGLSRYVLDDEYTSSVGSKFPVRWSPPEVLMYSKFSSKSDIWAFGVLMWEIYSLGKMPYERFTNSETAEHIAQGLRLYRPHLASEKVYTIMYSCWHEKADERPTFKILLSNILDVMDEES
# Brain penetration study = conditions: in vivo
# KrasL2 NSCLC = KrasL2 NSCLC model; conditions: in vivo
# [5] = Glutathione binding and depletion in vitro; type: in vitro ADME
# primary CLL cells = assay: Rituximab ADCC assay (51Cr release), NK cells against autologous tumor cells; type: cell-based, human; conditions: 1 μM; primary CLL samples
# pancreatic cancer = assay: KPC pancreatic cancer model (spontaneously appearing tumors); type: in vivo, KPC mice; conditions: 15 mg/kg BID oral
# Protocol: The KPC mouse model recapitulates many of the molecular, histopathologic, and clinical features of human disease (Westphalen and Olive, Cancer J. 2012, 18, 502-510). Combination therapy with gemcitabine was also evaluated in this model. Mice were enrolled after identification of spontaneously appearing tumors in the pancreas that were ≧100 mm^3 (as assessed by high-resolution ultrasonography).
# CD8^+ T cell function = assay: IFN-γ level measurements for CD8+ T cell function; type: cell-based; conditions: relative to vehicle
# B cell lymphoma = assay: Veterinary clinical trial in canine B cell lymphoma; type: in vivo, companion dogs
# Source text: Canine B cell lymphoma exists as a pathological entity that is characterized by large anaplastic, centroblastic or immunoblastic lymphocytes with high proliferative grade, significant peripheral lymphadenopathy and an aggressive clinical course. While some dogs respond initially to prednisone, most canine lymphomas progress quickly and must be treated with combination therapies, including cyclophosphamide, vincristine, doxorubicin, and prednisone (CHOP), or other cytotoxic agents. In their histopathologic features, clinical course, and high relapse rate after initial treatment, canine B cell lymphomas resemble diffuse large B cell lymphoma (DLBCL) in humans. Thus, responses of canine B cell lymphomas to experimental treatments are considered to provide proof of concept for therapeutic candidates in DLBCL.
# Enrollment has completed for both arms.
# Intra-subject dose escalation was allowed. Six of the 11 dogs that initiated at 2.5 or 5 mg/kg once daily were escalated and completed the study with dosages of 10 mg/kg twice daily. Among all the dose cohorts, 8 dogs had shrinkage of target lesions >20%; the best tumor responses were between 45-49% reduction in the sum of target lesions in two dogs. […] CR were defined as disappearance of all evidence of disease per evaluator judgment, and absence of new lesions. Vali, et al., Vet. Comp. Oncol. 2010, 8, 28-37. […]
# [6] = system: human platelet-mediated thrombosis; design: species or system VWF HA1 mice (human platelets); conditions: in vivo
# Protocol: […]. Injury to the vessel wall of arterioles ([…] diameter) was performed using a pulsed nitrogen dye laser (440 nm, Photonic Instruments) applied through a 20× water-immersion Olympus objective (LUMPlanF1, 0.5 numerical aperature (NA)) of a Zeiss Axiotech vario microscope. Human platelet and wall interactions were visualized by fluorescence microscopy using a system equipped with a Yokogawa CSU-22 spinning disk confocal scanner, iXON EM camera, and 488 nm and 561 nm laser lines to detect BCECF-labeled and rhodamine-labeled platelets, respectively (Revolution XD, Andor Technology). The extent of thrombus formation was assessed for 2 minutes after injury and the area (μm^2) of coverage determined (Image IQ, Andor Technology).
# . The BTK inhibitor-treated human platelets were fluorescently labeled and infused continuously through a catheter inserted into the femoral artery. Their behavior in response to laser-induced vascular injury was monitored in real time using two-channel confocal intravital microscopy (Furie and Furie, J. Clin. Invest. 2005, 115(12), 2255-62). Upon induction of arteriole injury untreated platelets rapidly formed thrombi with an average thrombus size of […] (mean±s.e.m.), as shown in FIG. 124 and FIG. 125. […]. […]. […]
# [7] = In vitro metabolism in hepatocytes with 14C-labeled drug; type: in vitro ADME, mouse, rat, dog, rabbit, monkey, and human
# CD8^+ T cells = assay: Cytotoxic T cell (CTL) assay; type: cell-based; conditions: 500 nM
# Protocol: Without being bound by any theory, CD8^+ T cells have two primary effector functions: (1) produce large amounts of IFN-γ (which activates macrophages), and (2) cytolytic activity. […] The targets were B lymphoblasts from lipopolysaccharide (LPS) treated cultures. The assay was performed by incubating different ratios of effectors:targets for 4 hours.
# CD4^+ T cells = assay: Th17 and Treg development from CD4+ T cells; type: cell-based
# Protocol: Enriched CD4^+ T cells are plated on 24-well culture dishes that have been precoated 2 hr with 250 μL anti-TCRβ (0.5 μg/mL) plus anti-CD28 (5 μg/mL) at 37° C. in PBS. The cells are then supplemented with media containing BTK inhibitors along with the skewing cytokines as indicated in the following. The Th17 and Treg cultures are grown for 4 days before analysis. The cells are maintained for an additional 3 days with skewing cytokines (Th17; 20 ng/mL IL-6, 0.5 ng/mL TGF-β, 5 μg/mL IL-4, 5 μg/mL IFN-γ and Treg; 0.5 ng/mL TGF-β, 5 μg/mL IL-4, 5 μg/mL IFN-γ) and are supplemented with IL2 as a growth factor.
# [8] = Respiratory function study (GLP safety pharmacology); conditions: doses through 300 mg/kg
# [9] = Functional observation battery (GLP safety pharmacology); conditions: doses through 300 mg/kg
smiles,measurement,setting,value
"CC#CC(=O)N1CCC[C@H]1c1nc(-c2ccc(C(=O)Nc3ccccn3)cc2)c2c(N)nccn12 [Formula (XVIII), (S)-4-(8-amino-3-(1-(but-2-ynoyl)pyrrolidin-2-yl)imidazo[1,5-a]pyrazin-1-yl)-N-(pyridin-2-yl)benzamide]","body temperature, cardiovascular, or ECG (including QT interval) parameters",[1],no meaningful changes
same,BTK occupancy in granulocytic and monocytic MDSC compartment,BTK [2],Complete BTK occupancy
same,effect on Treg development,[3],no effect on regulatory T cell (Treg) development
same,BTK target occupancy,BTK [4],improved BTK target occupancy
same,brain penetration (blood-brain barrier),Brain penetration study,crosses the blood-brain barrier
same,immunosuppressive tumor associated MDSCs,KrasL2 NSCLC,significant reduction in immunosuppressive tumor associated MDSCs
same,immunosuppressive tumor associated TAMs,KrasL2 NSCLC,significant reduction in immunosuppressive tumor associated TAMs
same,immunosuppressive tumor associated Tregs,KrasL2 NSCLC,significant reduction in immunosuppressive tumor associated Tregs
same,glutathione binding and depletion,[5],binds to glutathione but does not deplete glutathione
same,effect on rituximab-mediated ADCC,primary CLL cells,not inhibited
same,CD8 cells in tumor tissues,pancreatic cancer,significant increase
same,"immunosuppressive TAMs, MDSCs and Tregs in tumor tissues",pancreatic cancer,significantly reduced
same,survival at day 14,pancreatic cancer,6/6
same,CD8+ T cell function as measured by IFN-γ level,CD8^+ T cell function,no effect on CD8^+ T cell function
same,complete responses (CR),"B cell lymphoma; Arm 1: 21 dogs, Arm 2: 10 dogs",not observed
same,Median time to best response,"B cell lymphoma; dog, in vivo",7 days
same,effect on thrombus formation,[6],does not interfere with thrombus formation
same,metabolites found,[7],two mono-oxidized metabolites and a glutathione conjugate
same,unique human metabolite,[7],No unique human metabolite was identified
same,CD8^+ T cell function as % cytotoxicity,CD8^+ T cells,no effect on CD8^+ T cell function
same,effect on Th17 and Treg development,CD4^+ T cells,no adverse effects on Th17 and Treg development
same,respiratory function,[8],no treatment-related adverse effects
same,neurobehavioral effects or body temperature,[9],no adverse effects

# Source: patent US20170239351A1, “Therapeutic Combinations of a BTK Inhibitor, a PI3K Inhibitor, a JAK-2 Inhibitor, a PD-1 Inhibitor, and/or a PD-L1 Inhibitor” (Acerta Pharma B.V., priority 2014, published 2017)
